Structures can show the parent of a compound that is named as a salt.
Assays:
Experiment in all cases: viability inhibition at highest dose (% inhibition); higher = more growth inhibition
ZR-75-1 Tam1 = details: 4-OH-tamoxifen in medium 1 µM; 72 h
In short: (§1)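 CellTiter-Glo viability was the readout, taken on a PHERAstar and normalised to vehicle-only and positive controls. It was measured after breast cancer cell lines and their resistant derivatives spent 72 h at 37 °C in 384-well plates containing library drugs at five concentrations spanning a 10 000-fold range, with 1 μM of the selecting drug in the medium of resistant lines. From logistic dose–response fits in the Breeze pipeline came drug sensitivity score, relative IC50 (curve midpoint) and top-dose inhibition.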

ZR-75-1 Tam2 = details: 4-OH-tamoxifen in medium 1 µM; 72 h
In short: as §1

T-47D = details: 72 h
In short: as §1

BT-474 = details: 72 h
In short: as §1

MCF-7 Tam1 = details: 4-OH-tamoxifen in medium 1 µM; 72 h
In short: as §1

T-47D Tam1 = details: 4-OH-tamoxifen in medium 1 µM; 72 h
In short: as §1

T-47D Tam2 = details: 4-OH-tamoxifen in medium 1 µM; 72 h
In short: as §1

BT-474 Tam1 = details: 4-OH-tamoxifen in medium 1 µM; 72 h
In short: as §1

ZR-75-1 = details: 72 h
In short: as §1

MCF-7 = details: 72 h
In short: as §1

BT-474 Tam2 = details: 4-OH-tamoxifen in medium 1 µM; 72 h
In short: as §1

Structure (SMILES)	viability inhibition at highest dose (ZR-75-1 Tam1)	viability inhibition at highest dose (ZR-75-1 Tam2)	viability inhibition at highest dose (T-47D; 4-OH-tamoxifen in medium 0 µM)	viability inhibition at highest dose (T-47D; 4-OH-tamoxifen in medium 1 µM)	viability inhibition at highest dose (BT-474; 4-OH-tamoxifen in medium 0 µM)	viability inhibition at highest dose (BT-474; 4-OH-tamoxifen in medium 1 µM)	viability inhibition at highest dose (MCF-7 Tam1)	viability inhibition at highest dose (T-47D Tam1)	viability inhibition at highest dose (T-47D Tam2)	viability inhibition at highest dose (BT-474 Tam1)	viability inhibition at highest dose (ZR-75-1; 4-OH-tamoxifen in medium 0 µM)	viability inhibition at highest dose (ZR-75-1; 4-OH-tamoxifen in medium 1 µM)	viability inhibition at highest dose (MCF-7; 4-OH-tamoxifen in medium 0 µM)	viability inhibition at highest dose (MCF-7; 4-OH-tamoxifen in medium 1 µM)	viability inhibition at highest dose (BT-474 Tam2)
CC(C)n1cnc2c(NCCc3ccc(O)cc3)nc(-c3csc4ccccc34)nc21 [StemRegenin 1] (drug 10000 nM)	19.8	24.2	35.4	50.4	25.1	96.4	18.6	41.9	54.1	95.2	8.1	26.6	51.4	65.3	89
CN(N=O)C(=O)N[C@@H](C=O)[C@@H](O)[C@H](O)[C@H](O)CO [Streptozocin] (drug 10000 nM)	1.17	-12.2	-10.8	-3.95	-7.13	3.07	-3.41	-3.33	9.65	-7.72	-9.82	2.7	-9.93	-7.59	-7.21
Cn1c(=O)c(F)c(Nc2ccc(I)cc2F)c2c(=O)n(C[C@@H](O)CO)cnc21 [TAK-733] (drug 1000 nM)	0.97	-5.15	-7.47	-14.5	3.01	18.7	13.8	25.4	16.5	7.81	-7.07	-1.35	16.8	22.9	14.3
CCS(=O)(=O)c1cccc(-c2cc(C(=O)NC3CCN(C)CC3)c(C)c3[nH]c4ncc(C)cc4c23)c1 [TAK-901] (drug 1000 nM)	-9.15	-10.7	40.7	18.2	-6.02	30.4	9.8	66.5	34.6	30.7	-12.6	-15.9	16.5	24.8	25.1
Cc1cc(C(C)Nc2ccccc2)c2nc(N3CCOCC3)cc(=O)n2c1 (stereo not given) [TGX-221] (drug 10000 nM)	49	51.8	8.41	24.1	9.95	25.3	9.33	12.4	15.9	29	52	45.3	21.3	25.4	42.5
CC(=O)Nc1ccc(C(=O)Nc2ccccc2N)cc1 [Tacedinaline (CI-994)] (drug 1000 nM)	-0.987	6.17	0.774	11.3	1.78	-3.82	0.399	6.74	15.3	-4.04	-0.612	5.35	-10.9	-11.9	-4.77
C=CC[C@@H]1/C=C(\C)C[C@H](C)C[C@H](OC)[C@H]2O[C@@](O)(C(=O)C(=O)N3CCCC[C@H]3C(=O)O[C@H](/C(C)=C/[C@@H]3CC[C@@H](O)[C@H](OC)C3)[C@H](C)[C@@H](O)CC1=O)[C@H](C)C[C@@H]2OC [Tacrolimus (FK 506)] (drug 10000 nM)	15.5	11.5	5.71	3.68	8.63	39.4	18.8	27.2	23.9	46.6	-3.64	16	25.3	37.4	35
COc1cc(Nc2ncc(F)c(Nc3ccc4c(n3)NC(=O)C(C)(C)O4)n2)cc(OC)c1OC [Tamatinib (R406)] (drug 10000 nM)	0.732	-2.25	-10	-10.3	-9.68	-22.1	-9.69	14.3	9.45	-6.1	-7.27	-4.27	-1.78	4.31	-9.51
CC/C(=C(\c1ccccc1)c1ccc(OCCN(C)C)cc1)c1ccccc1 [Tamoxifen citrate] (drug 10000 nM)	17.8	26.3	4.58	10.2	35.7	91.4	28.6	15.1	50	95.3	9.17	38.8	10.6	78.6	93.8
COc1cc2c(N3CCN(C(=O)Nc4ccc(OC(C)C)cc4)CC3)ncnc2cc1OCCCN1CCCCC1 [Tandutinib] (drug 1000 nM)	1.06	-7.47	-12.3	-11.9	-11.4	-9.77	-14.2	-4.68	5.77	-0.467	-10	-3.58	-5.26	-13.7	-13.2
C=CCNC1=C2C[C@@H](C)C[C@H](OC)[C@H](O)[C@@H](C)/C=C(\C)[C@H](OC(N)=O)[C@@H](OC)/C=C\C=C(/C)C(=O)NC(=CC1=O)C2=O [Tanespimycin  (17-AAG)] (drug 10000 nM)	45.8	48.8	55.6	43.3	52.1	81.8	35.7	43.6	43.5	74.9	31	45.4	70	51.1	74.3
Cn1nnc2c(C(N)=O)ncn2c1=O [Temozolomide] (drug 10000 nM)	6.09	0.839	0.803	1.13	-5.95	22.9	1.07	1.44	-13	19.9	11.9	-5.2	-13.8	-0.417	-6.27
